# Legend:
# IDO1 [1] = target: T1, IDO1 (Homo sapiens (Human), UniProt P14902); experiment: IDO1 Enzyme Assay; type: biochemical; conditions: HIS-tagged recombinant IDO1, fluorescence readout
# Procedure, shortened: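 Purified His-tagged human IDO1 (40 nM final, E. coli-expressed) was preincubated 30 min at RT with compound in 50 mM Tris pH 7.0 with methylene blue, ascorbate and catalase. Reaction ran 60 min at RT after adding tryptophan (400 μM stock), was quenched with methyl isonipecotate and heated, then read by fluorescence (ex 400, em 510 nm); IC50 via four-parameter logistic fit.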
# Target sequence in this assay (P14902 whole entry, species assumed): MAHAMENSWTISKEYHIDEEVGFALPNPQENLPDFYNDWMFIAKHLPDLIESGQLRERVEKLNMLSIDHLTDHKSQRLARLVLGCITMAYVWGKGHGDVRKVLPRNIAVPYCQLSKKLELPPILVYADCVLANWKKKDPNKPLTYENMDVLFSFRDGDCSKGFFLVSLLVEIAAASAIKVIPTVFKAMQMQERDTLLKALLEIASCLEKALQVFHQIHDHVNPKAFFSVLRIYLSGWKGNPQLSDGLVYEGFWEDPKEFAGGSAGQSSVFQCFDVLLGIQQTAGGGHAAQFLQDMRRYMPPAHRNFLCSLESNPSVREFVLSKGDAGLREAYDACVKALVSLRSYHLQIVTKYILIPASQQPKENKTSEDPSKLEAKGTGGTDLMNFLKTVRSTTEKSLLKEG
# IDO1 [2] = target: T1, IDO1; experiment: IDO1 Cellular Assay in Hela Cells Stimulated with IFNγ; type: cell-based; conditions: about 48 hours, read-out: IDO1 HELA Cell Assay, IC50
# Procedure, shortened: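 HeLa cells (2×10^5 cells/ml) with 300 uM L-tryptophan and 100 ng/mL IFNγ exposed to 10-point 3-fold compound dilutions for about 48 h at 37° C. Kynurenine detected by fluorescence (ex 400, em 510 nm) after overnight methyl isonipecotate. Signal normalised to non-IFNγ and DMSO wells; IC50 by four-parameter logistic fit.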
# Target sequence in this assay (P14902 whole entry): as the sequence (P14902 whole entry, species assumed) above
# IDO1 [3] = target: T1, IDO1; experiment: IDO1 Human Whole Blood Assay; type: cell-based; conditions: LPS and IFNγ, 18 h, kynurenine by LC/MS/MS
# Method: Compounds to be tested were serially diluted in ten 3-fold steps in DMSO starting from 10 mM. 3 μL of compound dilutions or DMSO alone were then dispensed from the dilution plate into a polypropylene 96-well assay plate containing 97 μL of RPMI using an Echo 555 acoustic liquid handler (Labcyte). LPS and IFNγ was prepared in RPMI to a 10λ of final conc. (1000 ng/mL), final concentration is 100 ng/mL.
# Human whole blood was drawn in sodium heparin coated tubes from healthy internal donors. Two hundred forty μL of blood was transferred to each of the wells of a v-bottom 96 well plate. Thirty μL of compound was transferred from intermediate dilution plate, and incubated for 15 min. […] from stimulants was then transferred to blood and mixed thoroughly. Plate was covered with breathable membrane and incubated at 37° C. for overnight (18 h).
# On day 2 isotope labeled standard of kynurenine and tryptophan was made in water at 10× concentration and 30 μL was added to the blood at 3 μM final concentration. The assay plates were centrifuged at 300×G for 10 min with no brake to separate plasma from red blood cells. Sixty μL of plasma samples was removed without disturbing red blood cells.
# Plasma was diluted with RPMI in 1:1 ratio and proteins were precipitated out with two volume of Acetonitrile. The plates was centrifuged at 4000×G for 60 min. Twenty μL of supernatant was carefully transferred to a 384 well plate contain 40 μL of 0.1% formic acid in water and analyzed by LC/MS/MS.
# LC/MS/MS analyses were performed using Thermo Fisher's LX4-TSQ Quantum Ultra system. This system consists of four Agilent binary high-performance liquid chromatography (HPLC) pumps and a TSQ Quantum Ultra triple quadruple MS/MS instrument. For each sample, 5 μL were injected onto an Atlantis T3 column (2.1 mm×150 mm, 3 μm particle size) from Waters. The mobile phase gradient pumped at 0.8 mL/min was used to elute the analytes from the column at 25° C. The elution started at 0% B increasing linearly to 25% B at 6.5 min, holding at 25% for 1 min, re-equilibrating to 10 min. Mobile phase A consisted of 0.1% formic acid in water. Mobile phase B consisted of 0.1% of formic acid in acetonitrile. Data was acquired in positive mode using a HESI interface. The operational parameters for the TSQ Quantum Ultra instrument were a spray voltage of 4000 V, capillary temperature of 380° C., vaporizer temperature 400° C., shealth gas 60 arbitrary units, Aux gas 20 arbitrary units, tube lens 85 and collision gas 1.2 mTorr. SRM chromatograms of kynurenine (QI: 209.2>Q3:94.0) and internal standard (Q1: 215.3>Q3:98.2) were collected for 90 sec. The peak area was integrated by Xcalibur Quan software. The ratios between the kynurenine generated in the reaction and 2D6-Kynurenine spiked-in internal standard were used to generate percentage inhibition and IC50 values. Compounds were titrated and IC50's were calculated by 4 parameter sigmoidal curve fitting formula.
# Target sequence in this assay (P14902 whole entry): as the sequence (P14902 whole entry, species assumed) above
SMILES,IC50 (IDO1 [1]) [nM],IC50 (IDO1 [2]) [nM],IC50 (IDO1 [3]) [nM]
"C[S@@](=N)(=O)CCNc1nonc1/C(=N/O)N[C@H]1Cc2ccc(F)cc21 [Example 2, N—((S)-4-fluorobicyclo[4.2.0]octa-1(6),2,4-trien-7-yl)-N′-hydroxy-4-((2-((R)—S-methylsulfonimidoyl)ethyl)amino)-1,2,5-oxadiazole-3-carboximidamide]",88.1,60.9,386
"CS(=O)(/C=C/Nc1nonc1/C(=N/O)N[C@H]1Cc2ccc(F)cc21)=NC#N (stereo partly drawn) [Example 15, 4-(((E)-2-(N-cyano-S-methylsulfonimidoyl)vinyl)amino)-N-((S)-4-fluorobicyclo[4.2.0]octa-1(6),2,4-trien-7-yl)-N′-hydroxy-1,2,5-oxadiazole-3-carboximidamide]",165,20.1,869
"CS(=O)(CCNc1nonc1/C(=N/O)N[C@H]1Cc2ccc(F)cc21)=NC(N)=O (stereo partly drawn) [Example 16, 4-((2-(N-carbamoyl-S-methylsulfonimidoyl)ethyl)amino)-N-((S)-4-fluorobicyclo[4.2.0]octa-1,3,5-trien-7-yl)-N′-hydroxy-1,2,5-oxadiazole-3-carboximidamide]",55.1,69.2,843
"CS(=O)(CCNc1nonc1/C(=N/O)N[C@H]1Cc2ccc(F)cc21)=NC#N (stereo partly drawn) [Example 17, 4-((2-(N-cyano-S-methylsulfonimidoyl)ethyl)amino)-N-((S)-4-fluorobicyclo[4.2.0]octa-1(6),2,4-trien-7-yl)-N′-hydroxy-1,2,5-oxadiazole-3-carboximidamide]",64.7,53.7,173
